Results published in patent EP3628659A1, “SELENOESTER-CONTAINING COMPOUNDS FOR USE IN THE TREATMENT OF MICROBIAL INFECTIONS OR COLORECTAL CANCER” (Consejo Superior De Investigaciones Científicas, priority 2018, dated 2020).
pIC50: −log10 of the molar value.

What was measured:
[1] = test system: Colo 205 doxorubicin-sensitive; assay: Cytotoxicity assay (MTT) in Colo 205 cells; type: cell-based, human; conditions: Homo sapiens, COLO 205, 24 h, read-out: Colo 205 Cytotoxicity
Experimental: (§1) Cytotoxicity assays in human colonic adenocarcinoma cell lines Colo 205 doxorubicin-sensitive (ATCC-CCL-222) and Colo 320/MDR-LRP multidrug resistant overexpressing ABCB1 (MDR1)-LRP (ATCC-CCL-220.1) were performed following the procedure described by Gajdács et al, 2017, Bioorg Med Chem Lett. 27(4): 797-802. The effects of increasing concentrations of selenium compounds on cell growth were tested in 96-well flat-bottomed microtiter plates. The selectivity of the action towards cancer cells was assessed through the evaluation of cytotoxic activity in a non-tumoral cell line, the MRC-5 human embryonal lung fibroblast cell lines (ATCC CCL-171), as described in Gajdács et al, 2017, Bioorg Med Chem Lett. 27(4): 797-802.
(§2) All cell lines were purchased from LGC Promochem, Teddington, UK. The colonic cells were cultured in RPMI 1640 medium supplemented with 10% heat-inactivated fetal bovine serum, 2 mM L-glutamine, 1 mM Na-pyruvate and 100 mM Hepes. The cell lines were incubated at 37°C, in a 5% CO2, 95% air atmosphere. The semi-adherent human colon cancer cells were detached with Trypsin-Versene (EDTA) solution for 5 min at 37°C. Alternatively, MRC-5 cells was cultured in Eagle's Minimal Essential Medium (EMEM, containing 4.5 g/L glucose) supplemented with a non-essential amino acid mixture, a selection of vitamins and 10% heat-inactivated fetal bovine serum. The cell lines were incubated at 37°C, in a 5% CO2, 95% air atmosphere.
(§3) The compounds were diluted in a volume of 100 µL of medium. The two-fold serial dilutions of selenocompounds were prepared in 100 µL of RPMI 1640, horizontally. The semi-adherent colonic adenocarcinoma cells were treated with Trypsin-Versene (EDTA) solution. They were adjusted to a density of 2×10^4 cells in 100 µL of RPMI 1640 medium, and were added to each well, with the exception of the medium control wells. The final volume of the wells containing selenocompounds and cells was 200 µL.
(§4) The culture plates were incubated at 37°C for 24 h; at the end of the incubation period, 20 µL of MTT (thiazolyl blue tetrazolium bromide, Sigma) solution (from a stock solution of 5 mg/mL) were added to each well. After incubation at 37°C for 4 h, 100 µL of sodium dodecyl sulfate (SDS) (Sigma) solution (10% in 0.01 M HCI) were added to each well and the plates were further incubated at 37°C overnight. Cell growth was determined by measuring the optical density (OD) at 540/630 nm with Multiscan EX ELISA reader (Thermo Labsystems, Cheshire, WA, USA). Inhibition of the cell growth was determined according to the formula below: […] = 100−[(OD sample−OD medium control)/(OD cell control−OD medium control)] × 100 [formula]
(§5) Results are expressed in terms of IC50, defined as the inhibitory dose that reduces the growth of the cells exposed to the tested compounds by 50%. Regarding the selectivity, the selectivity indexes (SI) were calculate, being SI the quotient of the IC50 in non-tumoral cells (MRC-5) and the respective cancer cell (Colo-205 or Colo-320). Compound is considered moderately selective when SI < 6 and ≥ 3; and strongly selective when SI ≥ 6.

[2] = test system: Colo 320/MDR-LRP multidrug resistant overexpressing ABCB1 (MDR1)-LRP; assay: cells; type: cell-based, human; conditions: Homo sapiens, 24 h, read-out: Colo 320 Cytotoxicity
Experimental: as §1, §2, §3, §4, §5

[3] = test system: Candida albicans; assay: Antifungal activity (optical density), Candida albicans; type: cell-based; conditions: IC50 class, tested at 50, 100, 150 and 200 µM, OD 570 nm, 37 °C
Experimental: (§6) The compounds were tested for their antifungal and nematicidal properties against the fungi Candida albicans and Saccharomyces cerevisiae, and against the nematode Steinernema feltiae.
(§7) Fungal cell densities were determined by measuring the optical density (OD) at 570 nm at 0 h (first measurement immediately after incubation), 4 h, and 24 h after incubation at 37 °C; and using a Universal Microplate Reader, EL800, Biotech Instruments, Inc. Highland Park, Winooski, VT, USA. Compounds were dissolved in 1% DMSO and were tested at final concentrations of 50, 100, 150, and 200 µM. Nutrient Sabouraud Dextrose (SD), and Yeast Peptone Dextrose (YPD) were used as media for C. albicans, and S. cerevisiae, respectively. Ketoconazole was used as the positive control for C. albicans and S. cerevisiae. The growth culture with medium for each organism was used as the negative control. The Solvent 1% DMSO stock was used as a solvent control. All experiments were carried out in triplicate and on three different occasions (n = 9).
(§8) For the three organisms considered (C. albicans, S. cerevisiae and S. feltiae), the inhibitory concentration 50% (IC50) is defined as the concentration that inhibits the viability of the respective organism to a 50% of the viability determined for the negative control.

[4] = test system: Saccharomyces cerevisiae; assay: Antifungal activity (optical density), Saccharomyces cerevisiae; type: cell-based; conditions: read-out: Antifungal activity Saccharomyces cerevisiae, IC50 class, tested at 50, 100, 150 and 200 µM, OD 570 nm, 37 °C, read-out: Antifungal activity Streptomyces cerevisiae
Experimental: as §6, §7, §8

[5] = test system: Steinernema feltiae; assay: Nematicidal activity (viability count), Steinernema feltiae; type: in vivo; conditions: IC50 class, tested at 50, 100, 150 and 200 µM, viability at 24 h
Experimental: as §6
The soil nematodes S. feltiae were purchased from Sautter and Stepper GmbH (Ammerbuch, Germany) and stored at 4 °C in the dark. Before each experiment, fresh samples of nematodes were purchased and stored in the fridge upon arrival and used for a maximum of six days. To perform the assay, 200 mg of nematodes was reconstituted in 50 mL of phosphate buffered saline (PBS) (pH = 7.4) to form a homogenous suspension to revive the nematodes. Afterwards, the individual suspensions were allowed to rest at room temperature. The sedimentation was avoided with occasional shaking in moderate light and at room temperature (25 °C) for 30 min. Viability of the nematodes was determined by counting the live and dead nematodes under a light microscope (TR 200, VWR International, Leuven, Belgium) at four-fold magnification. An initial viability value of more than 90 percent was considered necessary to perform the experiments.
Sample solutions were added into the wells of a 96-well plate to achieve at final concentrations of 50,100, 150, and 200 µM. Afterwards, 10 µL of nematode suspension was added to each well and the final volume in each well was adjusted to 100 µL with phosphate buffered saline (PBS) (pH = 7.4). PBS was used in the negative control and ethanol in the positive control. Viability was determined at 0 h and 24 h by counting the live and dead nematodes, whereby 50 µL of lukewarm water (40 °C) were added to each well to stimulate the nematodes for the 24 h reading. Each experiment was performed independently in triplicate and on three different occasions (n = 9).
as §8

N#CC[Se]C(=O)c1ccc(Cl)cc1 [Compound 3, Se-(cyanomethyl) 4-chlorobenzoselenoate]
pIC50 [1]: > 6.00
pIC50 [2]: 5.00 to 6.00
pIC50 [3]: 4.30 to 5.00
pIC50 [4]: < 4.00
pIC50 [5]: 4.30 to 5.00

N#CCC[Se]C(=O)c1ccc(Cl)cc1 [Compound 4, Se-(cyanoethyl) 4-chlorobenzoselenoate]
pIC50 [1]: 5.00 to 6.00
pIC50 [2]: 5.00 to 6.00
pIC50 [3]: < 4.00
pIC50 [4]: 4.00 to 4.30
pIC50 [5]: 4.30 to 5.00

N#CCCC[Se]C(=O)c1ccc(Cl)cc1 [Compound 5, Se-(cyanopropyl) 4-chlorobenzoselenoate]
pIC50 [1]: 5.00 to 6.00
pIC50 [2]: 5.00 to 6.00
pIC50 [3]: 4.30 to 5.00
pIC50 [4]: < 4.00
pIC50 [5]: 5.00 to 6.00

Cc1ccc(C(=O)[Se]CC#N)cc1 [Compound 7, Se-(cyanomethyl) 4-methylbenzoselenoate]
pIC50 [1]: 5.00 to 6.00
pIC50 [2]: 5.00 to 6.00
pIC50 [3]: 4.30 to 5.00
pIC50 [4]: < 4.00
pIC50 [5]: 5.00 to 6.00

CC(=O)Oc1ccccc1C(=O)[Se]CC#N [Compound 17, Se-(cyanomethyl) 2-acetoxybenzoselenoate]
pIC50 [1]: > 6.00
pIC50 [2]: 5.00 to 6.00
pIC50 [3]: 4.30 to 5.00
pIC50 [4]: 4.30 to 5.00
pIC50 [5]: 4.30 to 5.00

N#CCC[Se]C(=O)c1ccc(Cl)cc1Cl [Compound 14, Se-(cyanoethyl) 2,4-dichlorobenzoselenoate]
pIC50 [1]: 5.00 to 6.00
pIC50 [2]: 5.00 to 6.00
pIC50 [3]: < 4.00
pIC50 [4]: 4.00 to 4.30
pIC50 [5]: 4.30 to 5.00

N#CC[Se]C(=O)c1ccc(Cl)cc1Cl [Compound 13, Se-(cyanomethyl) 2,4-dichlorobenzoselenoate]
pIC50 [1]: 5.00 to 6.00
pIC50 [2]: 5.00 to 6.00
pIC50 [3]: 4.30 to 5.00
pIC50 [4]: < 4.00
pIC50 [5]: 4.30 to 5.00

N#CC[Se]C(=O)c1ccc(Cl)c(Cl)c1 [Compound 15, Se-(cyanomethyl) 3,4-dichlorobenzoselenoate]
pIC50 [1]: 5.00 to 6.00
pIC50 [2]: 5.00 to 6.00
pIC50 [3]: 4.30 to 5.00
pIC50 [4]: < 4.00
pIC50 [5]: < 4.00

Cc1ccc(C(=O)[Se]CCCC#N)cc1 [Compound 9, Se-(cyanopropyl) 4-methylbenzoselenoate]
pIC50 [1]: 5.00 to 6.00
pIC50 [2]: 5.00 to 6.00
pIC50 [3]: 4.00 to 4.30
pIC50 [4]: < 4.00
pIC50 [5]: 4.00 to 4.30

N#CC[Se]C(=O)c1ccccc1 [Compound 6, Se-(cyanomethyl) benzoselenoate]
pIC50 [1]: 5.00 to 6.00
pIC50 [2]: 5.00 to 6.00
pIC50 [3]: 4.30 to 5.00
pIC50 [4]: < 4.00
pIC50 [5]: 4.30 to 5.00

N#CC[Se]C(=O)c1ccc(F)cc1 [Compound 1, Se-(cyanomethyl) 4-fluorobenzoselenoate]
pIC50 [1]: 5.00 to 6.00
pIC50 [2]: 5.00 to 6.00
pIC50 [3]: 4.30 to 5.00
pIC50 [4]: < 4.00
pIC50 [5]: 4.00 to 4.30

Cc1ccc(C(=O)[Se]CCC#N)cc1 [Compound 8, Se-(cyanoethyl) 4-methylbenzoselenoate]
pIC50 [1]: 5.00 to 6.00
pIC50 [2]: 5.00 to 6.00
pIC50 [3]: < 4.00
pIC50 [4]: 4.00 to 4.30
pIC50 [5]: 4.30 to 5.00

CC(C)(C)c1ccc(C(=O)[Se]CC#N)cc1 [Compound 10, Se-(cyanomethyl) 4-tert-butylbenzoselenoate]
pIC50 [1]: 5.00 to 6.00
pIC50 [2]: 5.00 to 6.00
pIC50 [3]: 4.30 to 5.00
pIC50 [4]: < 4.00
pIC50 [5]: < 4.00

N#CC[Se]C(=O)Cc1ccccc1 [Compound 11, Se-(cyanomethyl) 2-phenylethaneselenoate]
pIC50 [1]: > 6.00
pIC50 [2]: > 6.00
pIC50 [3]: 4.30 to 5.00
pIC50 [4]: < 4.00
pIC50 [5]: 4.00 to 4.30
